Measured values reported in ChEMBL document CHEMBL4177730, “Rational modification of semaxanib and sunitinib for developing a tumor growth inhibitor targeting ATP binding site of tyrosine kinase” (2018).
Active and inactive are the calls of the source. No cut-off for these calls is given here.

How the values were obtained:
T47D [1] = assay: Growth inhibition of human T47D cells at 10 uM after 48 hrs by sulforhodamine B assay; type: functional, cell-based
M14 = assay: Growth inhibition of human M14 cells after 48 hrs by sulforhodamine B assay; type: functional; details: M14, 48 h
T47D [2] = assay: Growth inhibition of human T47D cells after 48 hrs by sulforhodamine B assay; type: functional
K562 = assay: Growth inhibition of human K562 cells at 10 uM after 48 hrs by sulforhodamine B assay; type: functional, cell-based
OVCAR-8 = assay: Growth inhibition of human OVCAR8 cells after 48 hrs by sulforhodamine B assay; type: functional; details: OVCAR-8, 48 h
HOP-92 [3] = assay: Growth inhibition of human HOP92 cells after 48 hrs by sulforhodamine B assay; type: functional; details: HOP-92, 48 h
MDA-MB-468 = assay: Growth inhibition of human MDA-MB-468 cells at 10 uM after 48 hrs by sulforhodamine B assay; type: functional, cell-based
NCI-H226 = assay: Growth inhibition of human NCI-H226 cells at 10 uM after 48 hrs by sulforhodamine B assay; type: functional, cell-based
BT-549 = assay: Growth inhibition of human BT549 cells after 48 hrs by sulforhodamine B assay; type: functional; details: BT-549, 48 h
SF-539 = assay: Growth inhibition of human SF539 cells at 10 uM after 48 hrs by sulforhodamine B assay; type: functional, cell-based
NCI-H23 = assay: Growth inhibition of human NCI-H23 cells after 48 hrs by sulforhodamine B assay; type: functional; details: NCI-H23, 48 h
HCT-116 = assay: Growth inhibition of human HCT116 cells after 48 hrs by sulforhodamine B assay; type: functional; details: HCT-116, 48 h
SR [4] = assay: Growth inhibition of human SR cells at 10 uM after 48 hrs by sulforhodamine B assay; type: functional, cell-based
IGROV-1 = assay: Growth inhibition of human IGROV1 cells at 10 uM after 48 hrs by sulforhodamine B assay; type: functional, cell-based
ACHN [5] = assay: Growth inhibition of human ACHN cells after 48 hrs by sulforhodamine B assay; type: functional
PC-3 = assay: Growth inhibition of human PC3 cells at 10 uM after 48 hrs by sulforhodamine B assay; type: functional, cell-based
UACC-62 = assay: Growth inhibition of human UACC62 cells after 48 hrs by sulforhodamine B assay; type: functional; details: UACC-62, 48 h
CAKI-1 = assay: Growth inhibition of human CAKI-1 cells after 48 hrs by sulforhodamine B assay; type: functional; details: CAKI-1, 48 h
HCT-15 [6] = assay: Growth inhibition of human HCT15 cells at 10 uM after 48 hrs by sulforhodamine B assay; type: functional, cell-based
DU-145 [7] = assay: Growth inhibition of human DU145 cells at 10 uM after 48 hrs by sulforhodamine B assay; type: functional, cell-based
NCI/ADR-RES = assay: Growth inhibition of human NCI-ADR-RES cells after 48 hrs by sulforhodamine B assay; type: functional
DU-145 [8] = assay: Growth inhibition of human DU145 cells after 48 hrs by sulforhodamine B assay; type: functional; details: DU-145, 48 h
NCI-H522 = assay: Growth inhibition of human NCI-H522 cells at 10 uM after 48 hrs by sulforhodamine B assay; type: functional, cell-based
A549 = assay: Growth inhibition of human A549/ATCC cells after 48 hrs by sulforhodamine B assay; type: functional; details: A549, 48 h
EKVX = assay: Growth inhibition of human EKVX cells after 48 hrs by sulforhodamine B assay; type: functional
HOP-92 [9] = assay: Growth inhibition of human HOP92 cells at 10 uM after 48 hrs by sulforhodamine B assay; type: functional, cell-based
HCT-15 [10] = assay: Growth inhibition of human HCT15 cells after 48 hrs by sulforhodamine B assay; type: functional; details: HCT-15, 48 h
NCI-H322M = assay: Growth inhibition of human NCI-H322M cells after 48 hrs by sulforhodamine B assay; type: functional
786-0 = assay: Growth inhibition of human 786-0 cells at 10 uM after 48 hrs by sulforhodamine B assay; type: functional, cell-based
OVCAR-3 = assay: Growth inhibition of human OVCAR3 cells after 48 hrs by sulforhodamine B assay; type: functional; details: OVCAR-3, 48 h
SK-OV-3 = assay: Growth inhibition of human SKOV3 cells at 10 uM after 48 hrs by sulforhodamine B assay; type: functional, cell-based
LOX IMVI = assay: Growth inhibition of human LOXIMVI cells after 48 hrs by sulforhodamine B assay; type: functional
ACHN [11] = assay: Growth inhibition of human ACHN cells at 10 uM after 48 hrs by sulforhodamine B assay; type: functional, cell-based
SW-620 = assay: Growth inhibition of human SW620 cells after 48 hrs by sulforhodamine B assay; type: functional; details: SW-620, 48 h
A498 = assay: Growth inhibition of human A498 cells after 48 hrs by sulforhodamine B assay; type: functional; details: A498, 48 h
SNB-19 = assay: Growth inhibition of human SNB19 cells at 10 uM after 48 hrs by sulforhodamine B assay; type: functional, cell-based
SR [12] = assay: Growth inhibition of human SR cells after 48 hrs by sulforhodamine B assay; type: functional
SNB-75 = assay: Growth inhibition of human SNB75 cells at 10 uM after 48 hrs by sulforhodamine B assay; type: functional, cell-based
SK-MEL-5 = assay: Growth inhibition of human SK-MEL-5 cells after 48 hrs by sulforhodamine B assay; type: functional; details: SK-MEL-5, 48 h
HOP-62 = assay: Growth inhibition of human HOP62 cells at 10 uM after 48 hrs by sulforhodamine B assay; type: functional, cell-based
[13] = read-out: LC50 (the source's name)

For `O=C1/C(=C\c2cccn2Cc2ccccc2)c2ccccc2N1c1c(Cl)cccc1Cl`, the “growth inhibition (GI)” value (T47D [1]) was “Active”, the GI50 (M14) was greater than 100 µM and the TGI (M14) was greater than 100 µM. For the same molecule, the CC50 (M14; [13]) was greater than 100 µM, the GI50 (T47D [2]) was 210 nM and the TGI (T47D [2]) was 1860 nM. For the same molecule, the CC50 (T47D [2]; [13]) was greater than 100 µM, the “growth inhibition (GI)” value (K562) was “Active” and the GI50 (OVCAR-8) was greater than 100 µM. The TGI (OVCAR-8) was greater than 100 µM, the CC50 (OVCAR-8; [13]) was greater than 100 µM and the GI50 (HOP-92 [3]) was 970 nM. The TGI (HOP-92 [3]) was 17.8 µM, the CC50 (HOP-92 [3]; [13]) was greater than 100 µM and the “growth inhibition (GI)” value (MDA-MB-468) was “Active”. The “growth inhibition (GI)” value (NCI-H226) was “Active”, the GI50 (BT-549) was greater than 100 µM and the TGI (BT-549) was greater than 100 µM. The CC50 (BT-549; [13]) was greater than 100 µM, the “growth inhibition (GI)” value (SF-539) was “Active” and the GI50 (NCI-H23) was 39.8 µM. The TGI (NCI-H23) was greater than 100 µM, the CC50 (NCI-H23; [13]) was greater than 100 µM and the GI50 (HCT-116) was 3.38 µM. For the same molecule, the TGI (HCT-116) was greater than 100 µM, the CC50 (HCT-116; [13]) was greater than 100 µM and the “growth inhibition (GI)” value (SR [4]) was “Active”. The “growth inhibition (GI)” value (IGROV-1) was “Active”, the GI50 (ACHN [5]) was 8.31 µM and the TGI (ACHN [5]) was greater than 100 µM. The CC50 (ACHN [5]; [13]) was greater than 100 µM, the “growth inhibition (GI)” value (PC-3) was “Active” and the GI50 (UACC-62) was 2080 nM. The TGI (UACC-62) was greater than 100 µM, the CC50 (UACC-62; [13]) was greater than 100 µM and the GI50 (CAKI-1) was 8.31 µM. The TGI (CAKI-1) was greater than 100 µM, the CC50 (CAKI-1; [13]) was greater than 100 µM and the “growth inhibition (GI)” value (HCT-15 [6]) was “Active”. For the same molecule, the “growth inhibition (GI)” value (DU-145 [7]) was “Active”, the GI50 (NCI/ADR-RES) was greater than 100 µM and the TGI (NCI/ADR-RES) was greater than 100 µM. It also gave a CC50 (NCI/ADR-RES; [13]) greater than 100 µM, a GI50 (DU-145 [8]) greater than 100 µM and a TGI (DU-145 [8]) greater than 100 µM. The CC50 (DU-145 [8]; [13]) was greater than 100 µM, the “growth inhibition (GI)” value (NCI-H522) was “Active” and the GI50 (A549) was 8.31 µM. For the same molecule, the TGI (A549) was greater than 100 µM, the CC50 (A549; [13]) was greater than 100 µM and the GI50 (EKVX) was 410 nM. For the same molecule, the TGI (EKVX) was 7.94 µM, the CC50 (EKVX; [13]) was greater than 100 µM and the “growth inhibition (GI)” value (HOP-92 [9]) was “Active”. The GI50 (HCT-15 [10]) was 370 nM, the TGI (HCT-15 [10]) was greater than 100 µM and the CC50 (HCT-15 [10]; [13]) was greater than 100 µM. It also gave a GI50 (NCI-H322M) of 14.8 µM, a TGI (NCI-H322M) greater than 100 µM and a CC50 (NCI-H322M; [13]) greater than 100 µM. The “growth inhibition (GI)” value (786-0) was “Active”, the GI50 (OVCAR-3) was 740 nM and the TGI (OVCAR-3) was greater than 100 µM. For the same molecule, the CC50 (OVCAR-3; [13]) was greater than 100 µM, the “growth inhibition (GI)” value (SK-OV-3) was “Active” and the GI50 (LOX IMVI) was greater than 100 µM. For the same molecule, the TGI (LOX IMVI) was greater than 100 µM, the CC50 (LOX IMVI; [13]) was greater than 100 µM and the “growth inhibition (GI)” value (ACHN [11]) was “Active”. The GI50 (SW-620) was greater than 100 µM, the TGI (SW-620) was greater than 100 µM and the CC50 (SW-620; [13]) was greater than 100 µM. The GI50 (A498) was greater than 100 µM, the TGI (A498) was greater than 100 µM and the CC50 (A498; [13]) was greater than 100 µM. For the same molecule, the “growth inhibition (GI)” value (SNB-19) was “Active”, the GI50 (SR [12]) was greater than 100 µM and the TGI (SR [12]) was greater than 100 µM. The CC50 (SR [12]; [13]) was greater than 100 µM, the “growth inhibition (GI)” value (SNB-75) was “Active” and the GI50 (SK-MEL-5) was 2130 nM. For the same molecule, the TGI (SK-MEL-5) was greater than 100 µM, the CC50 (SK-MEL-5; [13]) was greater than 100 µM and the “growth inhibition (GI)” value (HOP-62) was “Active”.
